# In ChEMBL document CHEMBL5465560, “Selectivity Literature for EUbOPEN Chemogenomic Library” (2024):
# Key:
# [1] = target: T1, Glycogen synthase kinase-3 alpha (Homo sapiens, UniProt P49840); assay: Selectivity interaction (KinomeScan (DiscoverX)) EUB0001079a GSK3A; details: at 1 µM
# [2] = target: Dual specificity mitogen-activated protein kinase kinase 1 (Homo sapiens, UniProt Q02750); assay: Selectivity interaction (SelectScreen profiling (Invitrogen)) EUB0000607a MAP2K1; details: at 2 µM
# [3] = target: BDNF/NT-3 growth factors receptor (Homo sapiens) (UniProt Q16620); assay: Selectivity interaction (SelectScreen profiling (Invitrogen)) EUB0000607a NTRK2; details: at 2 µM
# [4] = target: T1, Glycogen synthase kinase-3 alpha; assay: Selectivity interaction (Kinase panel (KiNativ target engagement assay in Jurkat cells)) EUB0001635a GSK3A; format: cell-based; details: Selectivity number of off-targets 0.0, Selectivity number of targets 233.0, Source Knowledge https://www.sciencedirect.com/science/article/pii/S2451945619300674?via%3Dihub, at 1 µM
# [5] = target: T2, Dual specificity mitogen-activated protein kinase kinase 6 (Homo sapiens) (UniProt P52564); assay: Selectivity interaction (ActivX KiNativ screen (kinase selectivity in THP-1 cell lysates)) EUB0000639a MAP2K6; format: subcellular; details: lysate, at 1 µM
# T2 sequence (whole entry): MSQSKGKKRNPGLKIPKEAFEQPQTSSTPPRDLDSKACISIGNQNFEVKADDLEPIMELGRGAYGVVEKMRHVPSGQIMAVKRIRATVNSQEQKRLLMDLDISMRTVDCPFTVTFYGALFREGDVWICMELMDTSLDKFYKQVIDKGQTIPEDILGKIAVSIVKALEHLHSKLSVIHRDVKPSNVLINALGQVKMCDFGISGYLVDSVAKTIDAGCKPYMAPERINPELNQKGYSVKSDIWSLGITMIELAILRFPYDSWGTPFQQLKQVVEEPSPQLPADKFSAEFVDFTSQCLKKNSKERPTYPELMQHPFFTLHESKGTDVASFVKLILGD
# [6] = target: Bromodomain adjacent to zinc finger domain protein 1A (Homo sapiens) (UniProt Q9NRL2); assay: Selectivity interaction (Bromodomain panel (DSF asssay)) EUB0000270b BAZ1A
# [7] = target: Mast/stem cell growth factor receptor Kit (Homo sapiens, UniProt P10721); assay: Selectivity interaction (KinomeScan (DiscoverX)) EUB0000229b KIT; details: at 10 µM
# [8] = target: T3, Testis-specific serine/threonine-protein kinase 2 (Homo sapiens) (UniProt Q96PF2); assay: Selectivity interaction (ProQinase) EUB0000171b TSSK2
# T3 sequence (whole entry): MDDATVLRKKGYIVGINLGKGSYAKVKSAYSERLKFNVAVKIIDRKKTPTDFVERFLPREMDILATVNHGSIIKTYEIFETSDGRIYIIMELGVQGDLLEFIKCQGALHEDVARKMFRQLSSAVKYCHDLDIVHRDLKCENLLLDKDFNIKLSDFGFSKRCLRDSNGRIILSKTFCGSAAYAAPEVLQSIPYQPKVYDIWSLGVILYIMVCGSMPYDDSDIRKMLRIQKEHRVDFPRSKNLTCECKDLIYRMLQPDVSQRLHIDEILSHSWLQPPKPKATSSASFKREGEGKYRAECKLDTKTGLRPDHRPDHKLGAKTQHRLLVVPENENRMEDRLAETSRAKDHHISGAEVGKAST
# [9] = target: Tau-tubulin kinase 2 (Homo sapiens) (UniProt Q6IQ55); assay: Selectivity interaction (ProQinase) EUB0000171b TTBK2
# [10] = target: T4, Aurora kinase A (Homo sapiens) (UniProt O14965); assay: Selectivity interaction (Kinase panel (Z-LYTE Assay)) EUB0001632a STK6; details: at 10 µM
# T4 sequence (whole entry): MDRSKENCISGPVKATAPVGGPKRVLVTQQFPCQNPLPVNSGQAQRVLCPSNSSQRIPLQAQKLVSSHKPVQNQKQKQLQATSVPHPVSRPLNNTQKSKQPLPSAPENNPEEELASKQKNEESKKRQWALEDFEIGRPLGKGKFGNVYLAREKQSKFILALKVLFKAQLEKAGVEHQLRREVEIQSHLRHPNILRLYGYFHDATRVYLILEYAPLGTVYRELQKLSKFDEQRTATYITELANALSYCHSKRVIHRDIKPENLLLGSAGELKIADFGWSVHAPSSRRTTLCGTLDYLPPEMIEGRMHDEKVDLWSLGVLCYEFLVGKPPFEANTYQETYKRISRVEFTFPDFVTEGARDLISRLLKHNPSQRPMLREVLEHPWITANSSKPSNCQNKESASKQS
# [11] = target: Serine/threonine-protein kinase pim-2 (Homo sapiens, UniProt Q9P1W9); assay: Selectivity interaction (Kinase panel (Z-LYTE Assay)) EUB0001632a PIM2; details: at 10 µM
# [12] = target: Serine/threonine-protein kinase N1 (Homo sapiens, UniProt Q16512); assay: Selectivity interaction (Kinase panel (Z-LYTE Assay)) EUB0001632a PKN1; details: at 10 µM
# [13] = target: T5, Mitogen-activated protein kinase kinase kinase kinase 2 (Homo sapiens) (UniProt Q12851); assay: Selectivity interaction (KinomeScan (DiscoverX)) EUB0000695a MAP4K2; details: at 100 nM
# T5 sequence (whole entry): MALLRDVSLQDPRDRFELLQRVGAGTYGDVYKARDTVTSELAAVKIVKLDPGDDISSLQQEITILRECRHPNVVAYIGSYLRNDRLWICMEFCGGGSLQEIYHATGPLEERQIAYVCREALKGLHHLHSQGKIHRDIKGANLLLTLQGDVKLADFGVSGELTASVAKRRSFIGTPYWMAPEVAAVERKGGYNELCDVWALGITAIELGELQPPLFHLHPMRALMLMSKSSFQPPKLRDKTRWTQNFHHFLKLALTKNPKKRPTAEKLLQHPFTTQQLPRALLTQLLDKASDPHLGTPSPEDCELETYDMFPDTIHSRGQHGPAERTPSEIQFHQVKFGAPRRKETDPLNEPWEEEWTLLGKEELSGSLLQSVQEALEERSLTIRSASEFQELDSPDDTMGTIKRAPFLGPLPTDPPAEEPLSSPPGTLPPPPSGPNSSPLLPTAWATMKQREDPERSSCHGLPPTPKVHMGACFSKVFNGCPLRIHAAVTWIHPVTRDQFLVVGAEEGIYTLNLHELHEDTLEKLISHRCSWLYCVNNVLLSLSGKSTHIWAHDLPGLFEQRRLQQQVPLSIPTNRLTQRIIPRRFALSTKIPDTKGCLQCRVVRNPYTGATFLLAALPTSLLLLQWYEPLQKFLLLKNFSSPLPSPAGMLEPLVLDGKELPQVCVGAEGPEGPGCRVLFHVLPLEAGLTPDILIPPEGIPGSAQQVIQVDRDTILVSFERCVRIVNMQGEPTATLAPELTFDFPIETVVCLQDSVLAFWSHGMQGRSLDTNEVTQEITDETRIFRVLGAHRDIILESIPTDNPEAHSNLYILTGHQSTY
# T1 sequence (P49840 2-483 limits assumed): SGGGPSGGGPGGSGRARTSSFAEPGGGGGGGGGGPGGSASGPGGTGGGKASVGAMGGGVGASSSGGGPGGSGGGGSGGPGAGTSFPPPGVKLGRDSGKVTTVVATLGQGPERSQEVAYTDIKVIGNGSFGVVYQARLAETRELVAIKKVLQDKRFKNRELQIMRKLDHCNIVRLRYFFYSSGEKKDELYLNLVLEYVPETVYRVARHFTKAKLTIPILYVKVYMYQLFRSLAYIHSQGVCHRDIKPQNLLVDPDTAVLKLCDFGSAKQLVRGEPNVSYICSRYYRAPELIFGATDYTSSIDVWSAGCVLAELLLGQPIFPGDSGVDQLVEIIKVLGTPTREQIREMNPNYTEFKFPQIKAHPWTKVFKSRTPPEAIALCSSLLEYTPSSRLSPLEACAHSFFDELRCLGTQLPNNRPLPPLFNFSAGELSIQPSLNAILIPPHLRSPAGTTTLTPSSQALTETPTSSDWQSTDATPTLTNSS
# Sequence of Tau-tubulin kinase 2 (Homo sapiens) (Q6IQ55 whole entry): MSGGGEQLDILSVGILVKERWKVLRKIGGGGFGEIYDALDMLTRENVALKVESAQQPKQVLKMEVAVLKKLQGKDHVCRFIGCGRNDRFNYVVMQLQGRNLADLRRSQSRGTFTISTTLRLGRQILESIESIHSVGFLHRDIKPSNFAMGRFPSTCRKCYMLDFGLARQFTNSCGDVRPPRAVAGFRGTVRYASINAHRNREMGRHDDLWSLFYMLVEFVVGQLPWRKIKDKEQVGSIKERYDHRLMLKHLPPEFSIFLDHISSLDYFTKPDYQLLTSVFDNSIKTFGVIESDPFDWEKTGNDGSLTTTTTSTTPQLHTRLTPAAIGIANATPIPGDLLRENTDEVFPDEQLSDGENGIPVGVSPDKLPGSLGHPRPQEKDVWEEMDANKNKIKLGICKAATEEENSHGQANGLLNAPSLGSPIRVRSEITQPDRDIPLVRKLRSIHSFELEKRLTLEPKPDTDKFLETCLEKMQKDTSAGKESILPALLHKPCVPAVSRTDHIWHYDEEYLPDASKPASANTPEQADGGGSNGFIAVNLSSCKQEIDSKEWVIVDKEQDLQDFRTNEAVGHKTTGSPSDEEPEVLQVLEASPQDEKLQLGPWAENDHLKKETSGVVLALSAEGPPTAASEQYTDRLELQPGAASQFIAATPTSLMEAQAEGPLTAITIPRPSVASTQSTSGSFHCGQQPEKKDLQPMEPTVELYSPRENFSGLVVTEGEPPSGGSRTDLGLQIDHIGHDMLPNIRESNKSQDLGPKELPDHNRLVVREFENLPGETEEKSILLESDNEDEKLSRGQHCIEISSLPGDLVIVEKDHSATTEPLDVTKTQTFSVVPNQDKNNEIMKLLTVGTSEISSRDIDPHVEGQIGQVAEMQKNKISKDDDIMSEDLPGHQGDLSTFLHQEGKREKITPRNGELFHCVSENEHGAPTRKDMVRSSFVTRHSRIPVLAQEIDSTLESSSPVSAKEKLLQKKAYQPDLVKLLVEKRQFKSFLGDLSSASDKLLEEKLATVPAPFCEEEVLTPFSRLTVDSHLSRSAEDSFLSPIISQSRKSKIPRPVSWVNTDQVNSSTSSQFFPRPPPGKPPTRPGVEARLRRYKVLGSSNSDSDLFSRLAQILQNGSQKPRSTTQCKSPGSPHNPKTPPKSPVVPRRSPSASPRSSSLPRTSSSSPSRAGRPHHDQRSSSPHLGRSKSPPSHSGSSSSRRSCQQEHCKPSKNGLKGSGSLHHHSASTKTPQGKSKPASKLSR
# Sequence of Serine/threonine-protein kinase N1 (Q16512 2-942 limits assumed): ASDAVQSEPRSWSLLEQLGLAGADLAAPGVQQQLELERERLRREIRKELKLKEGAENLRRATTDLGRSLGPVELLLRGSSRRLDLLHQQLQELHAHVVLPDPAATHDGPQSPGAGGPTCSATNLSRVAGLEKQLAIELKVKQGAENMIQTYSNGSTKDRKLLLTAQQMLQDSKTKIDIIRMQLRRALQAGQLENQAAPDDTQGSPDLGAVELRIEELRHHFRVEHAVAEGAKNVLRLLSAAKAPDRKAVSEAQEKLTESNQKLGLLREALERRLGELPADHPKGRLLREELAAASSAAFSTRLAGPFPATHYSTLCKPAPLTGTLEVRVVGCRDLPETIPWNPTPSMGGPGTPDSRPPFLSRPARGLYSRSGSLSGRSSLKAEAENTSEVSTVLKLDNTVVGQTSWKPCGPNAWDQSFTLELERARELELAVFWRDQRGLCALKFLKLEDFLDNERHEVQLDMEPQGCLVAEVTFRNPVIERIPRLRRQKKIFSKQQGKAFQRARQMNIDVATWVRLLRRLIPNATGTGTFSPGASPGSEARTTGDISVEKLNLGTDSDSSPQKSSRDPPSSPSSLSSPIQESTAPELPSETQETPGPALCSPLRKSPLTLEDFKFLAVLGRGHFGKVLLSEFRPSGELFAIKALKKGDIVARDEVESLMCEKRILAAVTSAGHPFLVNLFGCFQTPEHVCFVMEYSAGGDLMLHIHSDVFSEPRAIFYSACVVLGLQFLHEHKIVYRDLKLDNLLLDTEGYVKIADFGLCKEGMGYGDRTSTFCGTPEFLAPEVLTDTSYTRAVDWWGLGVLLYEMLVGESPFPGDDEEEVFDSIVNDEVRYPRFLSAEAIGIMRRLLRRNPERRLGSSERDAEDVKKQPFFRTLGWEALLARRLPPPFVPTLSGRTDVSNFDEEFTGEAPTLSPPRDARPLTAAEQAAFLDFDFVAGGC
# Sequence of Dual specificity mitogen-activated protein kinase kinase 1 (Q02750 whole entry): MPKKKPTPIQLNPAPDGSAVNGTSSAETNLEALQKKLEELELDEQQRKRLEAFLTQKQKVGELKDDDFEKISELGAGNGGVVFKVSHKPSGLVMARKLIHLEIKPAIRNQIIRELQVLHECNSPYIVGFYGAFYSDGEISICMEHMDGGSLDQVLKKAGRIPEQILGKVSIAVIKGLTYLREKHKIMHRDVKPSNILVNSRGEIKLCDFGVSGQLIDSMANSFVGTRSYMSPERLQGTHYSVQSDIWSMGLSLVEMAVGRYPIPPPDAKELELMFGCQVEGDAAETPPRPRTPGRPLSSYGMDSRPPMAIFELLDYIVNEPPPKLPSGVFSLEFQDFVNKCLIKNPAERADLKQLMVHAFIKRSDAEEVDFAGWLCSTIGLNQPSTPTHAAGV
# Sequence of Bromodomain adjacent to zinc finger domain protein 1A (Homo sapiens) (Q9NRL2 whole entry, the tested form may be a part): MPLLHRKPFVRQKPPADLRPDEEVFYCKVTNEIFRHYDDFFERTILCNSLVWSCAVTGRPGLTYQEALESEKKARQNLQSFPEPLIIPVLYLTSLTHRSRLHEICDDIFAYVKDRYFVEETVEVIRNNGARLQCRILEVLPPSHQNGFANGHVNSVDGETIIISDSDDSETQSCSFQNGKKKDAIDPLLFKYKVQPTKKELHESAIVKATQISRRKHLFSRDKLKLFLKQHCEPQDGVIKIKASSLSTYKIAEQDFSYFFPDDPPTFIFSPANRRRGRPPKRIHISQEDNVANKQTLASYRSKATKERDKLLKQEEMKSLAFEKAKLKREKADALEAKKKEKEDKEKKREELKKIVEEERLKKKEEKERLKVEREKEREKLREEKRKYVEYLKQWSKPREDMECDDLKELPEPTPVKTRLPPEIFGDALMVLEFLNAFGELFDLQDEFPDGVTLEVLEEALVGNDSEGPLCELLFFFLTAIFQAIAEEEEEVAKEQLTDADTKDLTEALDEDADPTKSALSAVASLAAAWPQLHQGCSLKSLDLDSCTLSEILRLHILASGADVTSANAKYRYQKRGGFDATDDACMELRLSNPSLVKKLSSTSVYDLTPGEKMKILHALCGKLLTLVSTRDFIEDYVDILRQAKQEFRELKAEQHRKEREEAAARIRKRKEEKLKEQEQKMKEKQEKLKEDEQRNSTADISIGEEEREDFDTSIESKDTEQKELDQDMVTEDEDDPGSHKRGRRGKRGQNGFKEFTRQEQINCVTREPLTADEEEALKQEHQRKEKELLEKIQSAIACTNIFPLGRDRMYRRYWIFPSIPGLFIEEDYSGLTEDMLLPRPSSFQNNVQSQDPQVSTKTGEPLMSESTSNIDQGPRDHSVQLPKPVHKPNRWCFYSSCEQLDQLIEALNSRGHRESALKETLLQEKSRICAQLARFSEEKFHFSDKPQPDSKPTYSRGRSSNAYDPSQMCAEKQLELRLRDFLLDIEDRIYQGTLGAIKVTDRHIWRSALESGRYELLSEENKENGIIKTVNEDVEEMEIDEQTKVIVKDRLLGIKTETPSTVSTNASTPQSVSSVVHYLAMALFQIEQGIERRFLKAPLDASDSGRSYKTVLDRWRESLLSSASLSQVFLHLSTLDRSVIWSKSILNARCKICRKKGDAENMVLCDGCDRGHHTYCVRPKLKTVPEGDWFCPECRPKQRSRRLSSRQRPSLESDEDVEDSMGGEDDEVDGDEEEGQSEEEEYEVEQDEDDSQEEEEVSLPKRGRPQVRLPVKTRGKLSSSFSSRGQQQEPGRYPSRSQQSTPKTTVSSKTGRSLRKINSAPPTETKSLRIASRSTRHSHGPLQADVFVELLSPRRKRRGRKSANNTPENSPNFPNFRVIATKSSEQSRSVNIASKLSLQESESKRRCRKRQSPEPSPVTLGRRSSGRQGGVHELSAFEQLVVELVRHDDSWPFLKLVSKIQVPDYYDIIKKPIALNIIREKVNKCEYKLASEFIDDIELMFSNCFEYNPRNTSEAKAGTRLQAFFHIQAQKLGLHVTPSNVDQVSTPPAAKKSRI
# Sequence of Serine/threonine-protein kinase pim-2 (Q9P1W9 whole entry, looked up): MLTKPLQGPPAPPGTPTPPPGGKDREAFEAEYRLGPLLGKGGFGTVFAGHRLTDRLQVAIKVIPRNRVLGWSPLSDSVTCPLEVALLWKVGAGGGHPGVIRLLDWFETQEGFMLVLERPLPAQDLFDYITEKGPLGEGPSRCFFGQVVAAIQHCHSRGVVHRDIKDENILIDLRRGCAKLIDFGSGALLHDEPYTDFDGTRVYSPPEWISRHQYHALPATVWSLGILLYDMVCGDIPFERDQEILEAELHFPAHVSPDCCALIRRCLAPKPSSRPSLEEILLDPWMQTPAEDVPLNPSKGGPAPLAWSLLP
structure (smiles),measurement,setting,value
Nc1cnc(N2CCc3cc(S(=O)(=O)Nc4c(F)cc(Cl)cc4F)cc(N4CCCC4=O)c32)nc1 [TP-020n],% of control,[1],100%
CNC(=O)Nc1ccc(-c2nc(N3CC4CCC(C3)O4)c3cnn(C4CCC5(CC4)OCCO5)c3n2)cc1,% of inhibition,[2],3%
same,% of inhibition,[3],1%
C=CC(=O)Nc1ccc(C(=O)Nc2[nH]nc3c2CN(C(=O)N[C@H](CN(C)C)c2ccccc2)C3(C)C)cc1,% of engagement,[4],-9.5%
CC[C@@H]1[C@H](F)C(=O)N[C@@H]1COc1nccc2cc(C(N)=O)c(OC)cc12 [ZIMLOVISERTIB],% of inhibition,[5],17%
Cc1cc(CN)cc(C)c1-c1ncn(C)c1-c1cncn1C,dTM,[6],-1.36 K
COc1cc(N(C)c2ccnc3ccc(C(F)(F)F)cc23)cc(OC)c1OC,% binding,[7],99%
C=CC(=O)Nc1cccc(C(=O)Nc2ccc(Nc3cc(-c4[nH]c(SC)nc4C)ccn3)cc2)c1,% of control,[8]; at 1 µM,90%
same,% of control,[8]; at 5 µM,97%
same,% of control,[9]; at 1 µM,94%
same,% of control,[9]; at 5 µM,93%
Cn1cc(-n2cnc3c(NCc4nc5cc(Cl)c(Cl)cc5[nH]4)nc(N4CCOCC4)nc32)cn1,% of control,[10],9.63%
same,% of control,[11],0.824%
same,% of control,[12],-4.72%
Cc1cc(F)c(C(=O)Nc2cccc(-c3nncn3C(C)C)n2)cc1-n1cnc(C2CC2)c1,% of control,[13],100%
